The source of these data is patent publication US10167247B2, “Solid forms of treprostinil” (United Therapeutics Corporation, priority 2013, dated 2019).

Holding throughout (type): physicochemical
The nature of series [1]: Dynamic vapor sorption (DVS). The following applies: for DVS weight loss: 95 to 5% RH. The method, then: DVS data were collected on a VTI SGA-100 Vapor Sorption Analyzer. NaCl and PVP were used as calibration standards. Samples were not dried prior to analysis. Sorption and desorption data were collected over a range from 5 to 95% RH (or 55 to 95% RH for Form B) at 10% RH increments under a nitrogen purge. The equilibrium criterion used for analysis was less than 0.0100% weight change in 5 minutes with a maximum equilibration time of 3 hours. Data were not corrected for the initial moisture content of the samples.

Series [2] is described as follows: Environmental stress (temperature / relative humidity), solid form by XRPD. As to the method:
The mesophase treprostinil of FIG. 31 are formed, from top to bottom, from the following solutions: (1) 0.40 water activity slurry with acetone 2 days; (2) DCM slurry 60 to 30° C.; (3) 0.80 water activity slurry with isopropanol 7 days; (4) 1-propanol/water 1:1 v/v slurry ambient temperature; (5) Form B+A+mesophase 50° C. 7 days, (6) Acetonitrile slurry ambient temperature; (7) Form A 50° C. 15 hours; (8) Methanol/ethyl acetate evaporation; (9) Toluene crash precipitation from methyl ethyl ketone.
Solids were stressed in glass vials under various drying and relative humidity (RH) environments for specified times, generally monitoring weight change during stressing. Drying was done via ambient, P2O5, vacuum (ambient and elevated temperatures), and convection oven experiments, for which the only drying condition listed in the tables is the oven temperature. Ambient experiments were conducted by leaving samples exposed in a laboratory fume hood. Specific RH values were achieved by placing the sample inside sealed chambers containing saturated salt solutions or into separate chambers containing P2O5 powder for 0% RH. The salt solutions were selected and prepared based an ASTM standard procedure. For vacuum experiments, vials were covered with nylon filters to prevent potential solid loss. For the elevated temperature experiments, temperature was measured by a NIST-traceable thermometer. […]

The nature of series [3]: TG-IR heating, post-TG-IR XRPD. The following applies: heated 25-97° C. As to the method: Thermogravimetric infrared (TG-IR) analysis was performed on a TA Instruments thermogravimetric (TG) analyzer model 2050 interfaced to a Magna-IR 560® Fourier transform infrared (IR) spectrophotometer (Thermo Nicolet) equipped with an Ever-Glo mid/far IR source, a potassium bromide (KBr) beamsplitter, and a mercury cadmium telluride (MCT-A) detector. The IR wavelength verification was performed using polystyrene, and the TG calibration standards were nickel and Alumel™. The sample was placed in a platinum sample pan, and the pan was inserted into the TG furnace. The TG instrument was started first, immediately followed by the FT-IR instrument. The TG instrument was operated under a flow of helium at 90 and 10 cc/min for the purge and balance, respectively. The furnace was heated under helium at a rate of 20° C./minute to a final temperature of 97° C. IR spectra were collected approximately every 16 seconds for approximately 13 minutes. Each IR spectrum represents 16 co-added scans collected at a spectral resolution of 4 cm^−1. Volatiles were identified from a search of the High Resolution Nicolet Vapor Phase spectral library (v. 1990-1994).

The nature of series [4]: Stability tests of anhydrous treprostinil on standing. As to the method:
An anhydrous form of treprostinil has been previously described, e.g., in J. Org. Chem. 2004, 69, 1890-1902. The anhydrous form is not stable at room temperature. […] A larger amount of dimers can form at higher temperatures. However, dimer formation is negligible at 5° C. Therefore, anhydrous treprostinil must be refrigerated for storage and transport. In the past, anhydrous treprostinil had to be refrigerated and shipped with ice packs to maintain low (2° C.-8° C.) temperatures.

Consider `CCCCC[C@H](O)CC[C@@H]1[C@H]2Cc3cccc(OCC(=O)O)c3C[C@H]2C[C@H]1O` [Treprostinil monohydrate Form B, 2-((1R,2R,3aS,9aS)-2-hydroxy-1-((S)-3-hydroxyoctyl)-2,3,3a,4,9,9a-hexahydro-1H-cyclopenta[b]naphthalen-5-yloxy)acetic acid], for which the DVS weight gain in series [1] (55 to 95% RH) is 0.4% weight gain 55 to 95% RH. In addition, in series [1], the DVS weight loss was 0.6% weight loss 95 to 5% RH. In addition, the “DVS weight gain upon equilibration” value in series [1] (equilibration at 55% RH) was 0.3% weight gain upon equilibration at 55% RH.

Take `CCCCC[C@H](O)CC[C@@H]1[C@H]2Cc3cccc(OCC(=O)O)c3C[C@H]2C[C@H]1O` [Treprostinil monohydrate Form A, 2-((1R,2R,3aS,9aS)-2-hydroxy-1-((S)-3-hydroxyoctyl)-2,3,3a,4,9,9a-hexahydro-1H-cyclopenta[b]naphthalen-5-yloxy)acetic acid]: the DVS weight gain in series [1] (5 to 95% RH) is 0.7% weight gain 5 to 95% RH. In addition, the DVS weight loss in series [1] was 0.6% weight loss 95 to 5% RH. Moreover, the “Solid form after stress (XRPD)” value in series [2] (50° C. 15 hours) is on record as “mesophase”. The “Post-TG-IR XRPD (solid form after heating)” value in series [3] is reported as “mesophase”.

Turning to `CCCCC[C@H](O)CC[C@@H]1[C@H]2Cc3cccc(OCC(=O)O)c3C[C@H]2C[C@H]1O` [anhydrous treprostinil, 2-((1R,2R,3aS,9aS)-2-hydroxy-1-((S)-3-hydroxyoctyl)-2,3,3a,4,9,9a-hexahydro-1H-cyclopenta[b]naphthalen-5-yloxy)acetic acid], the Dimer formation result in series [4] (5° C.) is “negligible”. In addition, in series [4] (25° C., dimers formed upon standing), the Stability result is recorded as “not stable”.

For `CCCCC[C@H](O)CC[C@@H]1[C@H]2Cc3cccc(OCC(=O)O)c3C[C@H]2C[C@H]1O` [Mesophase treprostinil, 2-((1R,2R,3aS,9aS)-2-hydroxy-1-((S)-3-hydroxyoctyl)-2,3,3a,4,9,9a-hexahydro-1H-cyclopenta[b]naphthalen-5-yloxy)acetic acid], the “Solid form after stress (XRPD)” value in series [2] (97% RH 12 days) is “mesophase+weak Form B”.

As for `CCCCC[C@H](O)CC[C@@H]1[C@H]2Cc3cccc(OCC(=O)O)c3C[C@H]2C[C@H]1O` [Treprostinil Form C, 2-((1R,2R,3aS,9aS)-2-hydroxy-1-((S)-3-hydroxyoctyl)-2,3,3a,4,9,9a-hexahydro-1H-cyclopenta[b]naphthalen-5-yloxy)acetic acid], the DVS weight gain in series [1] (5 to 75% RH) is given as 0.2% weight gain 5 to 75% RH; in series [1] (75 to 95% RH), 4.6% weight gain 75 to 95% RH. The DVS weight loss in series [1] was 0.5% weight loss 95 to 5% RH. For the same compound, the “post-DVS XRPD (solid form after DVS)” value in series [1] (after sorption/desorption cycle) was “B + A”. Besides, the “DVS weight loss upon equilibration” value in series [1] (equilibration at 5% RH) is 0.1% weight loss upon equilibration at 5% RH.
